Experiments:
Format in all cases: functional
[1] = system: Blumeria graminis f. sp. tritici; assay: Antifungal activity against Blumeria graminis f. sp. tritici infected seven-day-old wheat seedlings assessed as disease control at 12.5 mg/l after 7 days relative to control
[2] = system: Pyricularia oryzae; assay: Antifungal activity against Magnaporthe oryzae infected 12 day old rice plant assessed as disease control at 400 mg/l after 6 days relative to control
[3] = system: Tetranychus cinnabarinus; assay: Acaricidal activity against Tetranychus cinnabarinus (carmine spider mite) in kidney bean plants assessed as mortality at 600 mg/l after 48 hr relative to control
[4] = system: Pseudoperonospora cubensis; assay: Antifungal activity against Pseudoperonospora cubensis infected cucumber leaves assessed as disease control at 6.25 mg/l after 5 days relative to control
[5] = system: Pseudoperonospora cubensis; assay: Antifungal activity against Pseudoperonospora cubensis infected cucumber leaves assessed as disease control at 25 mg/l after 5 days relative to control
[6] = system: Blumeria graminis f. sp. tritici; assay: Antifungal activity against Blumeria graminis f. sp. tritici infected seven-day-old wheat seedlings assessed as disease control at 1.56 mg/l after 7 days relative to control
[7] = system: Botrytis cinerea; assay: Antifungal activity against Botryotinia fuckeliana infected cucumber leaves assessed as disease control at 400 mg/l after 4 days relative to control
[8] = system: Blumeria graminis f. sp. tritici; assay: Antifungal activity against Blumeria graminis f. sp. tritici infected seven-day-old wheat seedlings assessed as disease control at 400 mg/l after 7 days relative to control
[9] = system: Pseudoperonospora cubensis; assay: Antifungal activity against Pseudoperonospora cubensis infected cucumber leaves assessed as disease control at 3.12 mg/l after 5 days relative to control
[10] = system: Pseudoperonospora cubensis; assay: Antifungal activity against Pseudoperonospora cubensis infected cucumber leaves assessed as disease control at 400 mg/l after 5 days relative to control
[11] = system: Tetranychus cinnabarinus; assay: Acaricidal activity against Tetranychus cinnabarinus (carmine spider mite) in kidney bean plants assessed as mortality at 38 mg/l after 48 hr relative to control
[12] = system: Tetranychus cinnabarinus; assay: Acaricidal activity against Tetranychus cinnabarinus (carmine spider mite) in kidney bean plants assessed as mortality at 150 mg/l after 48 hr relative to control

CO/C=C(/C(=O)OC)c1ccccc1COc1cc(-c2ccccc2OC)nn1C
Activity [1]: 100% | Activity [2]: 100% | Activity [3]: 0% | Activity [4]: 0% | Activity [5]: 50% | Activity [6]: 35% | Activity [7]: 50% | Activity [8]: 100% | Activity [9]: 0% | Activity [10]: 100%

CO/C=C(/C(=O)OC)c1ccccc1COc1cc(-c2ccccc2Cl)nn1C
Activity [11]: 0% | Activity [1]: 100% | Activity [2]: 0% | Activity [3]: 100% | Activity [4]: 0% | Activity [5]: 100% | Activity [6]: 40% | Activity [7]: 0% | Activity [12]: 0% | Activity [8]: 100% | Activity [9]: 0% | Activity [10]: 100%

CO/C=C(/C(=O)OC)c1ccccc1COc1cc(-c2ccc(OCC(F)(F)F)cc2)nn1C
Activity [2]: 0% | Activity [3]: 0% | Activity [4]: 0% | Activity [5]: 90% | Activity [7]: 0% | Activity [8]: 60% | Activity [9]: 0% | Activity [10]: 100%

CO/C=C(/C(=O)OC)c1ccccc1COc1cc(-c2ccc([N+](=O)[O-])cc2)nn1C
Activity [1]: 100% | Activity [2]: 99% | Activity [3]: 0% | Activity [4]: 70% | Activity [5]: 100% | Activity [6]: 95% | Activity [7]: 0% | Activity [8]: 100% | Activity [9]: 50% | Activity [10]: 100%

CO/C=C(/C(=O)OC)c1ccccc1COc1cc(-c2ccc(-c3ccc(Cl)cc3)cc2)nn1C
Activity [1]: 95% | Activity [2]: 0% | Activity [3]: 0% | Activity [4]: 0% | Activity [5]: 100% | Activity [6]: 0% | Activity [7]: 0% | Activity [8]: 100% | Activity [9]: 0% | Activity [10]: 100%

CO/C=C(/C(=O)OC)c1ccccc1COc1cc(-c2ccc(Oc3ccccc3)cc2)nn1C
Activity [2]: 0% | Activity [3]: 0% | Activity [4]: 0% | Activity [5]: 100% | Activity [7]: 0% | Activity [8]: 0% | Activity [9]: 0% | Activity [10]: 100%

CO/C=C(/C(=O)OC)c1ccccc1COc1c(C)c(-c2ccccc2)nn1C
Activity [11]: 0% | Activity [1]: 100% | Activity [2]: 0% | Activity [3]: 100% | Activity [4]: 60% | Activity [5]: 100% | Activity [6]: 55% | Activity [7]: 0% | Activity [12]: 0% | Activity [8]: 100% | Activity [9]: 40% | Activity [10]: 100%

CO/C=C(/C(=O)OC)c1ccccc1Oc1cc(Oc2ccccc2C#N)ncn1 [AZOXYSTROBIN]
Activity [1]: 100% | Activity [2]: 100% | Activity [4]: 95% | Activity [5]: 100% | Activity [6]: 60% | Activity [7]: 100% | Activity [8]: 100% | Activity [9]: 100% | Activity [10]: 100%

CO/N=C(/C(=O)OC)c1ccccc1COc1ccccc1C [KRESOXIM-METHYL]
Activity [1]: 100% | Activity [2]: 100% | Activity [4]: 0% | Activity [5]: 35% | Activity [6]: 100% | Activity [7]: 100% | Activity [8]: 100% | Activity [9]: 0%

CO/C=C(/C(=O)OC)c1ccccc1COc1c(C)c(-c2ccc(OCC(F)(F)F)cc2)nn1C [METHYL 2-(2-((1,4-DIMETHYL-3-(4-(2,2,2-TRIFLUOROETHOXY)PHENYL)-1H-PYRAZOL-5-YLOXY)METHYL)PHENYL)-3-METHOXYACRYLATE]
Activity [1]: 100% | Activity [2]: 100% | Activity [3]: 60% | Activity [4]: 0% | Activity [5]: 40% | Activity [6]: 65% | Activity [7]: 100% | Activity [8]: 100% | Activity [9]: 0% | Activity [10]: 100%

CO/C=C(/C(=O)OC)c1ccccc1COc1c(C)c(-c2ccc(C)cc2)nn1C [METHYL 2-(2-((1,4-DIMETHYL-3-P-TOLYL-1H-PYRAZOL-5-YLOXY)METHYL)PHENYL)-3-METHOXYACRYLATE]
Activity [11]: 0% | Activity [1]: 100% | Activity [2]: 0% | Activity [3]: 100% | Activity [4]: 75% | Activity [5]: 100% | Activity [6]: 45% | Activity [7]: 0% | Activity [12]: 0% | Activity [8]: 100% | Activity [9]: 40% | Activity [10]: 100%

CO/C=C(/C(=O)OC)c1ccccc1COc1cc(-c2ccc(Cl)cc2Cl)nn1C [METHYL 2-(2-((3-(2,4-DICHLOROPHENYL)-1-METHYL-1H-PYRAZOL-5-YLOXY)METHYL)PHENYL)-3-METHOXYACRYLATE]
Activity [1]: 100% | Activity [2]: 0% | Activity [3]: 0% | Activity [4]: 45% | Activity [5]: 100% | Activity [6]: 0% | Activity [7]: 0% | Activity [8]: 100% | Activity [9]: 20% | Activity [10]: 100%

CO/C=C(/C(=O)OC)c1ccccc1COc1cc(-c2ccc(C)cc2C)nn1C [METHYL 2-(2-((3-(2,4-DIMETHYLPHENYL)-1-METHYL-1H-PYRAZOL-5-YLOXY)METHYL)PHENYL)-3-METHOXYACRYLATE]
Activity [11]: 0% | Activity [1]: 100% | Activity [2]: 100% | Activity [3]: 100% | Activity [4]: 70% | Activity [5]: 100% | Activity [6]: 80% | Activity [7]: 50% | Activity [12]: 0% | Activity [8]: 100% | Activity [9]: 20% | Activity [10]: 100%

CO/C=C(/C(=O)OC)c1ccccc1COc1c(C)c(-c2ccc(Cl)cc2)nn1C [METHYL 2-(2-((3-(4-CHLOROPHENYL)-1,4-DIMETHYL-1H-PYRAZOL-5-YLOXY)METHYL)PHENYL)-3-METHOXYACRYLATE]
Activity [1]: 100% | Activity [2]: 0% | Activity [3]: 60% | Activity [4]: 0% | Activity [5]: 0% | Activity [6]: 100% | Activity [7]: 0% | Activity [8]: 100% | Activity [9]: 0% | Activity [10]: 95%

CO/C=C(/C(=O)OC)c1ccccc1COc1cc(-c2ccc(F)cc2)nn1C [METHYL 2-(2-((3-(4-FLUOROPHENYL)-1-METHYL-1H-PYRAZOL-5-YLOXY)METHYL)PHENYL)-3-METHOXYACRYLATE]
Activity [2]: 50% | Activity [3]: 0% | Activity [4]: 100% | Activity [5]: 100% | Activity [7]: 100% | Activity [8]: 30% | Activity [9]: 75% | Activity [10]: 100%

CO/C=C(/C(=O)OC)c1ccccc1COc1cc(-c2ccc(C(C)(C)C)cc2)nn1C [METHYL 2-(2-((3-(4-TERT-BUTYLPHENYL)-1-METHYL-1H-PYRAZOL-5-YLOXY)METHYL)PHENYL)-3-METHOXYACRYLATE]
Activity [2]: 100% | Activity [3]: 0% | Activity [5]: 15% | Activity [7]: 50% | Activity [8]: 70% | Activity [10]: 100%

CO/C=C(/C(=O)OC)c1ccccc1COc1cc(-c2ccc(SC)cc2)nn1C [METHYL 3-METHOXY-2-(2-((1-METHYL-3-(4-(METHYLTHIO)PHENYL)-1H-PYRAZOL-5-YLOXY)METHYL)PHENYL)ACRYLATE]
Activity [2]: 90% | Activity [3]: 0% | Activity [4]: 35% | Activity [5]: 100% | Activity [7]: 0% | Activity [8]: 0% | Activity [9]: 0% | Activity [10]: 100%

CO/C=C(/C(=O)OC)c1ccccc1COc1cc(-c2ccc(C)cc2)nn1C [METHYL 3-METHOXY-2-(2-((1-METHYL-3-P-TOLYL-1H-PYRAZOL-5-YLOXY)METHYL)PHENYL)ACRYLATE]
Activity [1]: 35% | Activity [2]: 0% | Activity [3]: 0% | Activity [4]: 0% | Activity [5]: 0% | Activity [6]: 0% | Activity [7]: 0% | Activity [8]: 100% | Activity [9]: 0% | Activity [10]: 100%

CO/C=C(/C(=O)OC)c1ccccc1COc1cc(-c2ccccc2)nn1C [METHYL 3-METHOXY-2-(2-((1-METHYL-3-PHENYL-1H-PYRAZOL-5-YLOXY)METHYL)PHENYL)ACRYLATE]
Activity [1]: 0% | Activity [2]: 0% | Activity [3]: 0% | Activity [4]: 0% | Activity [5]: 0% | Activity [6]: 0% | Activity [7]: 0% | Activity [8]: 100% | Activity [9]: 0% | Activity [10]: 100%

CO/C=C(/C(=O)OC)c1ccccc1COc1cc(-c2ccc(OC)cc2)nn1C [METHYL 3-METHOXY-2-(2-((3-(4-METHOXYPHENYL)-1-METHYL-1H-PYRAZOL-5-YLOXY)METHYL)PHENYL)ACRYLATE]
Activity [1]: 65% | Activity [2]: 100% | Activity [3]: 0% | Activity [4]: 15% | Activity [5]: 90% | Activity [6]: 0% | Activity [7]: 50% | Activity [8]: 100% | Activity [9]: 0% | Activity [10]: 95%

Source: ChEMBL document CHEMBL3045550, “Design, synthesis and biological activities of new strobilurin derivatives containing substituted pyrazoles” (2010)
